These results are taken from patent publication US20230099293A1, “OGA INHIBITOR COMPOUNDS” (priority 2019, published 2023).

The target of one data set is T1, hOGA (Homo sapiens, UniProt O60502).
T1 construct: endogenous in cells; host or cells: HEK293 cells inducible for P301L mutant human Tau (isoform 2N4R)
T1 sequence (O60502 1-916): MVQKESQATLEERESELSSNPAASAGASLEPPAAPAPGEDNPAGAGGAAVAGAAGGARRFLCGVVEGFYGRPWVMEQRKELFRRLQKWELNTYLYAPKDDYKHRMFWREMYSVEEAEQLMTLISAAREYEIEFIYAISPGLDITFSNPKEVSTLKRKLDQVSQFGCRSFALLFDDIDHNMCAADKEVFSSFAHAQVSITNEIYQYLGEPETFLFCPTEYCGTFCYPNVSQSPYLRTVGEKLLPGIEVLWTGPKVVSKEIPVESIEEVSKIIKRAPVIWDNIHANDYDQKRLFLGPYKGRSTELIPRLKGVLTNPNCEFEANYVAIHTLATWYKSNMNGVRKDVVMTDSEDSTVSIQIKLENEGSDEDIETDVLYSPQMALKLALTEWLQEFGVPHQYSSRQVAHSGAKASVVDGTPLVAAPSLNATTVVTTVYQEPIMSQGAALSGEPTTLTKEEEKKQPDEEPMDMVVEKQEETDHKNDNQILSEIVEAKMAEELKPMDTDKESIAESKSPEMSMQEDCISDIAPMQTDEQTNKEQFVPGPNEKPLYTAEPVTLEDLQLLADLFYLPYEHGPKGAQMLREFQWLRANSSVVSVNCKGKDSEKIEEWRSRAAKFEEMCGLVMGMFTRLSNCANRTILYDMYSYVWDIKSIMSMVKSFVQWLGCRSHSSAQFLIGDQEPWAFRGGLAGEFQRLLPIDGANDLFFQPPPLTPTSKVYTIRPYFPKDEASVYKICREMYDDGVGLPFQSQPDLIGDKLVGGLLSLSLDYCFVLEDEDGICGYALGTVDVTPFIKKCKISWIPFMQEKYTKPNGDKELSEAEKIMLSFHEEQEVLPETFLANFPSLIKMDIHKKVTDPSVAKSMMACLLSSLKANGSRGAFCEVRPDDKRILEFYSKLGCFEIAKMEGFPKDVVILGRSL
Description: OGA cellular assay (ICC detection of O-GlcNAcylated proteins in HEK293 cells inducible for P301L mutant human Tau). The format is cell-based. Also on record: Emax: dose or concentration left out as unconfirmed. The conditions noted are these: for EC50: Cellular hOGA, pEC50, Table 5; for Emax: HEK293, read-out: Cellular Emax (%). Here is the method:
HEK293 cells inducible for P301L mutant human Tau (isoform 2N4R) were established at Janssen. Thiamet-G was used for both plate validation (high control) and as reference compound (reference EC50 assay validation). OGA inhibition is evaluated through the immunocytochemical (ICC) detection of O-GlcNAcylated proteins by the use of a monoclonal antibody (CTD110.6; Cell Signaling, #9875) detecting O-GlcNAcylated residues as previously described (Dorfmueller et al. 2010 Chemistry & biology, 17:1250). Inhibition of OGA will result in an increase of O-GlcNAcylated protein levels resulting in an increased signal in the experiment. Cell nuclei are stained with Hoechst to give a cell culture quality control and a rough estimate of immediate compounds toxicity, if any. ICC pictures are imaged with a Perkin Elmer Opera Phenix plate microscope and quantified with the provided software Perkin Elmer Harmony 4.1.
Cells were propagated in DMEM high Glucose (Sigma, #D5796) following standard procedures. 2 days before the cell assay cells are split, counted and seeded in Poly-D-Lysine (PDL) coated 96-wells (Greiner, #655946) plate at a cell density of 12,000 cells per cm^2 (4,000 cells per well) in 100 μl of Assay Medium (Low Glucose medium is used to reduce basal levels of GlcNAcylation) (Park et al. 2014 The Journal of biological chemistry 289:13519). At the day of compound test medium from assay plates was removed and replenished with 90 μl of fresh Assay Medium. 10 μl of compounds at a 10 fold final concentration were added to the wells. Plates were centrifuged shortly before incubation in the cell incubator for 6 hours. DMSO concentration was set to 0.2%. Medium is discarded by applying vacuum. For staining of cells medium was removed and cells washed once with 100 μl D-PBS (Sigma, #D8537). From next step onwards unless other stated assay volume was always 50 μl and incubation was performed without agitation and at room temperature. Cells were fixed in 50 μl of a 4% paraformaldehyde (PFA, Alpha aesar, #043368) PBS solution for 15 minutes at room temperature. […] Before analysis samples were washed 2 times manually for 5 minutes in ICC base buffer.
Imaging is performed using Perkin Elmer Phenix Opera using a water 20× objective and recording 9 fields per well. Intensity readout at 488 nm is used as a measure of O-GlcNAcylation level of total proteins in wells. To assess potential toxicity of compounds nuclei were counted using the Hoechst staining. IC50-values are calculated using parametric non-linear regression model fitting. As a maximum inhibition Thiamet Gat a 200 uM concentration is present on each plate. In addition, a concentration response of Thiamet G is calculated on each plate.

Data set [1] has as its target T2, recombinant human Meningioma Expressed Antigen 5 (MGEA5), also referred to as O-GlcNAcase (OGA) (Homo sapiens, UniProt O60502).
T2 construct: Full length OGA enzyme was purchased at OriGene (cat #TP322411); purchased OriGene TP322411
T2 sequence (O60502 1-916): T1 sequence (O60502 1-916)
Description: OGA biochemical assay (inhibition of FM-GlcNAc hydrolysis, fluorescence). The conditions noted are these: for IC50: Enzymatic hOGA, pIC50, Table 5; for Emax: read-out: Enzymatic Emax (%). Here is the method: The hydrolysis FM-GlcNAc (Marker Gene technologies, cat #M1485) results in the formation of β-D-N-glucosamineacetate and fluorescein. The fluorescence of the latter can be measured at excitation wavelength 485 nm and emission wavelength 538 nm. An increase in enzyme activity results in an increase in fluorescence signal. Full length OGA enzyme was purchased at OriGene (cat #TP322411). The enzyme was stored in 25 mM Tris.HCl, pH 7.3, 100 mM glycine, 10% glycerol at −20° C. […] The assay was performed in 200 mM Citrate/phosphate buffer supplemented with 0.005% Tween-20. 35.6 g Na2HIPO42H2O (Sigma, #C0759) were dissolved in 1 L water to obtain a 200 mM solution. […] The buffer to stop the reaction consists of a 500 mM Carbonate buffer, pH 11.0. […] OGA was used at a 2 nM concentration and FM-GlcNAc at a 100 uM final concentration. Dilutions were prepared in assay buffer.
Plates were pre-incubated for 60 min at room temperature and then 2 μl FM-GlcNAc substrate mix added. […] Plates were briefly centrifuged for 1 min at 1000 rpm and incubate at room temperature for 6 h. To stop the reaction 5 μl STOP buffer were added and plates centrifuge again 1 min at 1000 rpm. Fluorescence was quantified in the Thermo Scientific Fluoroskan Ascent or the PerkinElmer EnVision with excitation wavelength 485 nm and emission wavelength 538 nm.
For analysis a best-fit curve is fitted by a minimum sum of squares method. From this an IC50 value and Hill coefficient was obtained. High control (no inhibitor) and low control (saturating concentrations of standard inhibitor) were used to define the minimum and maximum values.

[2] abbreviates: HEK293 P301L Tau cells, 6 hours incubation, O-GlcNAcylation readout.
[3] abbreviates: full length OGA 2 nM, FM-GlcNAc 100 uM, 6 h at room temperature.

As for `Cc1cc2c(ncn2CC(=O)N(C)C)c(Nc2c(C)cc(C(F)(F)F)cc2C)n1` [Compound 30], the melting point was found to be 188.2 °C. In addition, at hOGA (setting [2]), the half-maximal effective concentration (EC50) is more than 1 µM. Moreover, the Emax on hOGA was 12%. The IC50 in data set [1] (setting [3]) was 5.89 µM. For the same compound, the Emax in data set [1] was 55%.

In turn, `Cc1nccc(C(F)F)c1Nc1nccc2c1ncn2CC(=O)N(C)C` [Compound 27] registered a melting point of 216.6 °C. On hOGA (setting [2]), the EC50 was more than 1 µM. The Emax at hOGA was determined as 18%. Besides, the half-maximal inhibitory concentration (IC50) in data set [1] (setting [3]) is 0.372 µM. Moreover, the Emax in data set [1] is 89%.

`Cc1cc(C(F)(F)F)cc(C)c1Nc1nccc2c1ncn2CC(N)=O` [Compound 5, 2-[4-[2,6-Dimethyl-4-(trifluoromethyl)anilino]imidazo[4,5-c]pyridin-1-yl]acetamide] displayed a melting point of 266.8 °C. The response on hOGA (setting [2]) was half-maximal at 0.447 µM (EC50). The Emax on hOGA was 67%. The 50% inhibitory concentration (IC50) in data set [1] (setting [3]) was 0.12 µM. Further, the Emax in data set [1] was determined as 91%.

As to `Cc1cc(C#N)cc(C)c1Nc1nccc2c1ncn2CC(=O)N(C)C` [Compound 46], the melting point was 263.4 °C. The compound also showed an EC50 on hOGA (setting [2]) of 0.468 µM. The Emax at hOGA was 69%. Besides, the half-inhibitory concentration (IC50) in data set [1] (setting [3]) is 0.0135 µM. In addition, the maximal effect (Emax) in data set [1] is 92%.

With `CN(C)C(=O)Cn1cnc2c(Nc3c(Cl)cc(C(F)(F)F)cc3Cl)nccc21` [Compound 17], the melting point was found to be 238.4 °C. Besides, the EC50 on hOGA (setting [2]) is 0.316 µM. Besides, on hOGA, the maximum response (Emax) worked out at 77%. Moreover, the IC50 in data set [1] (setting [3]) is 0.0162 µM. The Emax in data set [1] amounted to 99%.

The compound `Cc1cc(C(F)(F)F)cc(C(C)C)c1Nc1nccc2c1ncn2CC(=O)N(C)C` [Compound 12] showed a melting point of 234.4 °C. The compound further had an EC50 at hOGA (setting [2]) of 0.0468 µM. Moreover, the Emax at hOGA came to 88%. Also, the IC50 in data set [1] (setting [3]) is 0.0107 µM. In addition, the Emax in data set [1] amounted to 101%.

In turn, `COCCn1cnc2c(Nc3c(C)cc(C(F)(F)F)cc3C)nccc21` [Compound 74] had a melting point of 161.5 °C. Also, the Emax on hOGA was 6%. Moreover, the “Cellular hOGA; pEC50” value at hOGA (Table 5, HEK293 P301L Tau cells, 6 hours incubation, O-GlcNAcylation readout) is recorded as less than 6. Also, at hOGA (second table, averaged values over several runs, obtained after recalibration of the equipment), the “Cellular hOGA; pEC50” value is listed as less than 6. Moreover, in data set [1] (Table 5, full length OGA 2 nM, FM-GlcNAc 100 uM, 6 h at room temperature), the “Enzymatic hOGA; pIC50” value worked out at 5.64. Further, the Emax in data set [1] is 83%.

Take `CC(=O)n1nc(C)c(Nc2nccc3c2ncn3CC(=O)N(C)C)c1C` [Compound 37]: the melting point was 175.4 °C. On hOGA (setting [2]), the EC50 was more than 1 µM. On hOGA, the Emax came to 8%. For the same compound, in data set [1] (setting [3]), the IC50 is more than 10 µM. The Emax in data set [1] came to 2%.

`[2H]C([2H])([2H])N(C(=O)Cn1cnc2c(Nc3c(C)cc(C(F)(F)F)cc3C)nccc21)C([2H])([2H])[2H]` [Compound 53] gave a melting point of 208.2 °C. The EC50 on hOGA (setting [2]) is 0.135 µM. For the same compound, the Emax at hOGA came to 87%. Besides, in data set [1] (setting [3]), the IC50 was 0.00724 µM. Besides, the Emax in data set [1] came to 103%.

Regarding `Cc1cc(C(F)(F)F)cc(C)c1Nc1nccc2c1ncn2CC(=O)N1CCCC1` [Compound 49], the melting point stood at 196.6 °C. In addition, the EC50 on hOGA (setting [2]) is 0.646 µM. Further, on hOGA, the Emax is 57%. The IC50 in data set [1] (setting [3]) was 0.0933 µM. For the same compound, the Emax in data set [1] stood at 95%.

As for `CN(C)C(=O)Cn1cnc2c(Nc3c(Cl)cc(F)cc3C(F)(F)F)nccc21` [Compound 24], the melting point is 219.9 °C. Also, a half-maximal effect on hOGA (setting [2]) (EC50) was put at 0.398 µM. In addition, at hOGA, the Emax worked out at 82%. Also, the IC50 in data set [1] (setting [3]) was 0.0457 µM. The Emax in data set [1] was determined as 96%.

Consider `COc1ccc(-n2nc(C)c(Nc3nccc4c3ncn4CC(=O)N(C)C)c2C)cc1` [Compound 44], for which the melting point worked out at 199.9 °C. The compound further showed an EC50 on hOGA (setting [2]) of 0.457 µM. Moreover, at hOGA, the Emax is 64%. Moreover, the IC50 in data set [1] (setting [3]) is 0.0275 µM. The Emax in data set [1] turned out to be 99%.

Regarding `Cc1cc(C(F)(F)F)cc(C)c1Nc1nccc2c1cnn2CC(=O)N(C)C` [Compound 64, 2-[4-[2,6-Dimethyl-4-(trifluoromethyl)anilino]pyrazolo[4,3-c]pyridin-1-yl]-N,N-dimethyl-acetamide], the melting point stood at 196.5 °C. The compound further gave an EC50 on hOGA (setting [2]) of 0.234 µM. Moreover, the Emax at hOGA amounted to 78%. Further, in data set [1] (setting [3]), the IC50 is 0.0427 µM. The Emax in data set [1] was found to be 101%.

As to `CC(C)c1cc(F)cc(Cl)c1Nc1nccc2c1ncn2CC(=O)N(C)C` [Compound 47], the melting point was 251.8 °C. For the same compound, the EC50 at hOGA (setting [2]) is 0.0676 µM. Also, the maximum response (Emax) at hOGA came out at 110%. Moreover, the IC50 in data set [1] (setting [3]) is 0.0135 µM. Also, the Emax in data set [1] is 97%.

As for `Cc1cc(-c2cnn(C)c2)cc(C(C)C)c1Nc1nccc2c1ncn2CC(=O)N(C)C` [Compound 22], the melting point amounted to 234.4 °C. For the same compound, on hOGA (setting [2]), the EC50 is more than 1 µM. Moreover, the Emax at hOGA is 31%. Also, the half-maximal inhibitory concentration (IC50) in data set [1] (setting [3]) was 0.0417 µM. For the same compound, the maximum response (Emax) in data set [1] worked out at 98%.

`Cc1nn(-c2cccc(C#N)c2)c(C)c1Nc1nccc2c1ncn2CC(=O)N(C)C` [Compound 33] registered a melting point of 239.9 °C. For the same compound, a half-maximal effect at hOGA (setting [2]) (EC50) was put at 0.479 µM. Besides, at hOGA, the Emax worked out at 63%. In addition, the IC50 in data set [1] (setting [3]) is 0.0204 µM. The Emax in data set [1] worked out at 97%.
